Assay results taken from the NIST ThermoML archive (doi:10.1016/j.jct.2012.11.027).

Assay: xn = mol fraction of the nth substance listed
Details: 101 kPa, Liquid, Linear variable-path acoustic interferometer

C=CC(=O)OC [methyl propenoate] + CCCCCCO
speed of sound [m/s]
Details	288.15 K	293.15 K	298.15 K	303.15 K	308.15 K	313.15 K	318.15 K
x1 = 0.077	1325.5	1306.4	1290.5	1272	1256.5	1236.3	1216.5
x1 = 0.1542	1311.1	1291.6	1275.3	1256.1	1240.1	1219.7	1199.7
x1 = 0.2299	1297.1	1277.5	1260.7	1241.8	1225.1	1204.8	1185.1
x1 = 0.3057	1284.1	1264.4	1247.4	1228.5	1211.6	1191.6	1171.8
x1 = 0.3834	1272	1252.3	1235.1	1216.4	1199.1	1179.4	1159.6
x1 = 0.4612	1261.7	1242	1224.5	1205.6	1187.9	1168.1	1148.2
x1 = 0.534	1253.5	1233.6	1215.9	1196.7	1178.5	1158.6	1138.4
x1 = 0.6068	1246.6	1226.4	1208.2	1188.7	1169.8	1149.7	1129.3
x1 = 0.672	1241.3	1220.8	1202.2	1182.4	1162.8	1142.4	1121.7
x1 = 0.737	1237.3	1216.6	1197.5	1177.4	1157	1136.3	1115.2
x1 = 0.8046	1233.9	1212.9	1193.4	1172.8	1151.6	1130.6	1109.1
x1 = 0.8722	1231.2	1209.8	1189.8	1168.7	1146.7	1125.4	1103.5
x1 = 0.9361	1229.1	1207.4	1186.7	1165.4	1142.6	1121.2	1099.4
x1 = 1	1226.6	1204.6	1183.6	1162.2	1139.1	1117.8	1095.7

C=CC(=O)OC [methyl propenoate] + CCCCCCCCO
speed of sound [m/s]
Details	288.15 K	293.15 K	298.15 K	303.15 K	308.15 K	313.15 K	318.15 K
x1 = 0.077	1371.5	1352.2	1331.5	1310.8	1292.2	1274.2	1256.8
x1 = 0.1554	1352.2	1331.8	1311.5	1290.9	1271.8	1253.4	1235.1
x1 = 0.2304	1333.7	1313.6	1293.4	1273.1	1253.6	1234.9	1216.4
x1 = 0.3053	1316.3	1296.3	1276	1255.8	1236	1217.5	1198.9
x1 = 0.383	1299.9	1280	1259.7	1239.6	1219.7	1200.9	1182.4
x1 = 0.4603	1285	1265.1	1244.7	1224.5	1204.5	1185.9	1167.5
x1 = 0.5321	1272.6	1252.5	1232.1	1212.1	1192.1	1173.4	1154.8
x1 = 0.6038	1262.4	1242	1221.6	1201.3	1181.1	1162.1	1143.1
x1 = 0.6724	1253.7	1233.3	1212.9	1192.3	1171.7	1152.5	1132.8
x1 = 0.741	1246.5	1225.8	1205.4	1184.7	1163.6	1143.8	1123.6
x1 = 0.8052	1241.4	1220.1	1199.4	1178.5	1156.7	1136.5	1115.7
x1 = 0.8698	1236.3	1214.7	1193.7	1172.5	1150.2	1129.6	1108.3
x1 = 0.935	1231.8	1209.6	1188.3	1166.8	1144.2	1123.1	1101.5
x1 = 1	1226.6	1204.6	1183.6	1162.2	1139.1	1117.8	1095.7
